What was measured:
Assay in all cases: relative viability (nuclei count vs DMSO), 5 days (fraction); higher = more cells survive
[1] = compound: C[C@]1(c2nc3c(C(N)=O)cccc3[nH]2)CCCN1 [Veliparib] + Cc1nc(Nc2ncc(C(=O)Nc3c(C)cccc3Cl)s2)cc(N2CCN(CCO)CC2)n1 [Dasatinib] (partner 0.075 µM)
Summary of the method: (§1)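 The day after seeding in 1536-well plates, lung cancer cell lines were treated by pin tool with a single drug, or with a fixed anchor-drug dose together with five library-drug doses (not always all listed) in √10 steps. After 5 days, a combined fix-and-stain solution (final 0.05% Triton X-100, 1% formaldehyde, 1 ug/ml Hoechst) was added. Nuclei counted on 4× images gave relative viability as treated counts over vehicle counts, reported as the median of duplicate plates.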

[2] = compound: COC1=CC=C(C=C1)CN2C=CC3=C2C=C(C=C3)C(=O)NO + Nc1ncn([C@H]2C[C@H](O)[C@@H](CO)O2)c(=O)n1 [Decitabine] (partner 2 µM)
Summary of the method: as §1

[3] = compound: C[C@]1(c2nc3c(C(N)=O)cccc3[nH]2)CCCN1 [Veliparib] + CCNC(=O)c1noc(-c2cc(C(C)C)c(O)cc2O)c1-c1ccc(CN2CCOCC2)cc1 [Luminespib] (partner 0.01 µM)
Summary of the method: as §1

[4] = compound: COC1=CC=C(C=C1)CN2C=CC3=C2C=C(C=C3)C(=O)NO + CC(C)C[C@H](NC(=O)[C@H](Cc1ccccc1)NC(=O)c1cnccn1)B(O)O [Bortezomib] (partner 0.002 µM)
Summary of the method: as §1

With NCI-H1792 the relative viability ([1]; first compound 0.02 µM) was 0.79, the relative viability ([1]; first compound 0.06325 µM) was 0.79 and the relative viability ([1]; first compound 0.2 µM) was 0.822. It also gave a relative viability ([1]; first compound 0.6325 µM) of 0.707, a relative viability ([1]; first compound 2 µM) of 0.717 and a relative viability ([2]; first compound 0.08 µM) of 0.523. It also gave a relative viability ([2]; first compound 0.253 µM) of 0.619, a relative viability ([2]; first compound 0.8 µM) of 0.479 and a relative viability ([2]; first compound 2.53 µM) of 0.469. For the same cell line, the relative viability ([2]; first compound 8 µM) was 0.458, the relative viability ([3]; first compound 0.02 µM) was 0.509 and the relative viability ([3]; first compound 0.06325 µM) was 0.361. It also gave a relative viability ([3]; first compound 0.2 µM) of 0.508, a relative viability ([3]; first compound 0.6325 µM) of 0.429 and a relative viability ([3]; first compound 2 µM) of 0.331. The relative viability ([4]; first compound 0.08 µM) was 0.95, the relative viability ([4]; first compound 0.253 µM) was 0.945 and the relative viability ([4]; first compound 0.8 µM) was 0.979. For the same cell line, the relative viability ([4]; first compound 2.53 µM) was 0.931 and the relative viability ([4]; first compound 8 µM) was 0.7.
In the case of NCI-H1915, the relative viability ([1]; first compound 0.02 µM) is reported as 0.307, the relative viability ([1]; first compound 0.06325 µM) is reported as 0.329 and the relative viability ([1]; first compound 0.2 µM) is reported as 0.301. For the same cell line, the relative viability ([1]; first compound 0.6325 µM) was 0.314, the relative viability ([1]; first compound 2 µM) was 0.297 and the relative viability ([2]; first compound 0.08 µM) was 0.239. The relative viability ([2]; first compound 0.253 µM) was 0.284, the relative viability ([2]; first compound 0.8 µM) was 0.259 and the relative viability ([2]; first compound 2.53 µM) was 0.275. For the same cell line, the relative viability ([2]; first compound 8 µM) was 0.262, the relative viability ([3]; first compound 0.02 µM) was 0.799 and the relative viability ([3]; first compound 0.06325 µM) was 0.6. It also gave a relative viability ([3]; first compound 0.2 µM) of 0.647, a relative viability ([3]; first compound 0.6325 µM) of 0.553 and a relative viability ([3]; first compound 2 µM) of 0.596. The relative viability ([4]; first compound 0.08 µM) was 0.769, the relative viability ([4]; first compound 0.253 µM) was 0.921 and the relative viability ([4]; first compound 0.8 µM) was 0.989. It also gave a relative viability ([4]; first compound 2.53 µM) of 0.924 and a relative viability ([4]; first compound 8 µM) of 1.02.
Cell Line NCI-H1975 has a relative viability ([1]; first compound 0.02 µM) of 0.336, a relative viability ([1]; first compound 0.06325 µM) of 0.37 and a relative viability ([1]; first compound 0.2 µM) of 0.331. It also gave a relative viability ([1]; first compound 0.6325 µM) of 0.368, a relative viability ([1]; first compound 2 µM) of 0.372 and a relative viability ([2]; first compound 0.08 µM) of 0.349. For the same cell line, the relative viability ([2]; first compound 0.253 µM) was 0.364, the relative viability ([2]; first compound 0.8 µM) was 0.443 and the relative viability ([2]; first compound 2.53 µM) was 0.456. It also gave a relative viability ([2]; first compound 8 µM) of 0.388, a relative viability ([3]; first compound 0.02 µM) of 0.118 and a relative viability ([3]; first compound 0.06325 µM) of 0.233. It also gave a relative viability ([3]; first compound 0.2 µM) of 0.142, a relative viability ([3]; first compound 0.6325 µM) of 0.31 and a relative viability ([3]; first compound 2 µM) of 0.18. The relative viability ([4]; first compound 0.08 µM) was 0.422, the relative viability ([4]; first compound 0.253 µM) was 0.382 and the relative viability ([4]; first compound 0.8 µM) was 0.408. For the same cell line, the relative viability ([4]; first compound 2.53 µM) was 0.455 and the relative viability ([4]; first compound 8 µM) was 0.363.
NCI-H1993 gave a relative viability ([1]; first compound 0.02 µM) of 0.496, a relative viability ([1]; first compound 0.06325 µM) of 0.571 and a relative viability ([1]; first compound 0.2 µM) of 0.537. It also gave a relative viability ([1]; first compound 0.6325 µM) of 0.64, a relative viability ([1]; first compound 2 µM) of 0.522 and a relative viability ([2]; first compound 0.08 µM) of 0.602. It also gave a relative viability ([2]; first compound 0.253 µM) of 0.599, a relative viability ([2]; first compound 0.8 µM) of 0.526 and a relative viability ([2]; first compound 2.53 µM) of 0.675. It also gave a relative viability ([2]; first compound 8 µM) of 0.613, a relative viability ([3]; first compound 0.02 µM) of 0.713 and a relative viability ([3]; first compound 0.06325 µM) of 0.675. The relative viability ([3]; first compound 0.2 µM) was 0.968, the relative viability ([3]; first compound 0.6325 µM) was 0.64 and the relative viability ([3]; first compound 2 µM) was 0.895. The relative viability ([4]; first compound 0.08 µM) was 0.934, the relative viability ([4]; first compound 0.253 µM) was 1.16 and the relative viability ([4]; first compound 0.8 µM) was 1.15. The relative viability ([4]; first compound 2.53 µM) was 1.2 and the relative viability ([4]; first compound 8 µM) was 1.04.
With NCI-H2009 the relative viability ([1]; first compound 0.02 µM) was 0.332, the relative viability ([1]; first compound 0.06325 µM) was 0.319 and the relative viability ([1]; first compound 0.2 µM) was 0.331. For the same cell line, the relative viability ([1]; first compound 0.6325 µM) was 0.29, the relative viability ([1]; first compound 2 µM) was 0.292 and the relative viability ([2]; first compound 0.08 µM) was 0.331. It also gave a relative viability ([2]; first compound 0.253 µM) of 0.352, a relative viability ([2]; first compound 0.8 µM) of 0.37 and a relative viability ([2]; first compound 2.53 µM) of 0.36. It also gave a relative viability ([2]; first compound 8 µM) of 0.365, a relative viability ([3]; first compound 0.02 µM) of 1.03 and a relative viability ([3]; first compound 0.06325 µM) of 0.96. For the same cell line, the relative viability ([3]; first compound 0.2 µM) was 1.05, the relative viability ([3]; first compound 0.6325 µM) was 1.05 and the relative viability ([3]; first compound 2 µM) was 1.13. The relative viability ([4]; first compound 0.08 µM) was 0.771, the relative viability ([4]; first compound 0.253 µM) was 0.967 and the relative viability ([4]; first compound 0.8 µM) was 0.958. For the same cell line, the relative viability ([4]; first compound 2.53 µM) was 0.975 and the relative viability ([4]; first compound 8 µM) was 0.84.
NCI-H2023 gave a relative viability ([1]; first compound 0.02 µM) of 0.511, a relative viability ([1]; first compound 0.06325 µM) of 0.596 and a relative viability ([1]; first compound 0.2 µM) of 0.532. It also gave a relative viability ([1]; first compound 0.6325 µM) of 0.547, a relative viability ([1]; first compound 2 µM) of 0.625 and a relative viability ([2]; first compound 0.08 µM) of 0.201. It also gave a relative viability ([2]; first compound 0.253 µM) of 0.234, a relative viability ([2]; first compound 0.8 µM) of 0.272 and a relative viability ([2]; first compound 2.53 µM) of 0.244. For the same cell line, the relative viability ([2]; first compound 8 µM) was 0.173, the relative viability ([3]; first compound 0.02 µM) was 0.746 and the relative viability ([3]; first compound 0.06325 µM) was 0.738. For the same cell line, the relative viability ([3]; first compound 0.2 µM) was 0.696, the relative viability ([3]; first compound 0.6325 µM) was 0.73 and the relative viability ([3]; first compound 2 µM) was 0.73. For the same cell line, the relative viability ([4]; first compound 0.08 µM) was 0.728, the relative viability ([4]; first compound 0.253 µM) was 1.05 and the relative viability ([4]; first compound 0.8 µM) was 0.944. It also gave a relative viability ([4]; first compound 2.53 µM) of 1.03 and a relative viability ([4]; first compound 8 µM) of 0.878.
Work on NCI-H2085 yielded a relative viability ([1]; first compound 0.02 µM) of 0.239, a relative viability ([1]; first compound 0.06325 µM) of 0.213 and a relative viability ([1]; first compound 0.2 µM) of 0.262. For the same cell line, the relative viability ([1]; first compound 0.6325 µM) was 0.252, the relative viability ([1]; first compound 2 µM) was 0.246 and the relative viability ([2]; first compound 0.08 µM) was 0.561. For the same cell line, the relative viability ([2]; first compound 0.253 µM) was 0.571, the relative viability ([2]; first compound 0.8 µM) was 0.639 and the relative viability ([2]; first compound 2.53 µM) was 0.593. It also gave a relative viability ([2]; first compound 8 µM) of 0.549, a relative viability ([3]; first compound 0.06325 µM) of 0.438 and a relative viability ([3]; first compound 0.2 µM) of 0.426. The relative viability ([3]; first compound 0.6325 µM) was 0.273, the relative viability ([3]; first compound 2 µM) was 0.447 and the relative viability ([4]; first compound 0.08 µM) was 1.05. The relative viability ([4]; first compound 0.253 µM) was 1.24, the relative viability ([4]; first compound 0.8 µM) was 1.14 and the relative viability ([4]; first compound 2.53 µM) was 1.1. It also gave a relative viability ([4]; first compound 8 µM) of 1.08.
Cell Line NCI-H2087 has a relative viability ([1]; first compound 0.02 µM) of 0.738, a relative viability ([1]; first compound 0.06325 µM) of 0.731 and a relative viability ([1]; first compound 0.2 µM) of 0.886. The relative viability ([1]; first compound 0.6325 µM) was 0.788, the relative viability ([1]; first compound 2 µM) was 0.942 and the relative viability ([2]; first compound 0.08 µM) was 0.25. It also gave a relative viability ([2]; first compound 0.253 µM) of 0.295, a relative viability ([2]; first compound 0.8 µM) of 0.288 and a relative viability ([2]; first compound 2.53 µM) of 0.319. For the same cell line, the relative viability ([2]; first compound 8 µM) was 0.192, the relative viability ([3]; first compound 0.02 µM) was 0.167 and the relative viability ([3]; first compound 0.06325 µM) was 0.188. For the same cell line, the relative viability ([3]; first compound 0.2 µM) was 0.152, the relative viability ([3]; first compound 0.6325 µM) was 0.14 and the relative viability ([3]; first compound 2 µM) was 0.145. It also gave a relative viability ([4]; first compound 0.08 µM) of 0.863, a relative viability ([4]; first compound 0.253 µM) of 0.775 and a relative viability ([4]; first compound 0.8 µM) of 0.898. For the same cell line, the relative viability ([4]; first compound 2.53 µM) was 0.754 and the relative viability ([4]; first compound 8 µM) was 0.606.

From the supplement of paper PMC10307832
